Series [1] concerns the target CYP3A4 (Homo sapiens, UniProt P08684). Kind of series: Inhibition of CYP3A4 conversion of dibenzylfluorescein to fluorescein. In kind it is in vitro ADME. How it is done: (§1) Inhibition of CYP2C9 and CYP3A4
(§2) These assays were carried out as described using CYP2C9 and CYP3A4 conversion of dibenzylfluorescein (DBF) to fluorescein (F).

Series [2] addresses T1, cloned human μ opioid receptor (Homo sapiens, UniProt P35372).
T1 construct: expressed in transfected cells
Kind of series: [3H]diprenorphine binding to cloned human μ opioid receptor. The method, then:
(§3) IC50 values were obtained by nonlinear analysis of the data using GraphPad Prism version 3.00 for Windows (GraphPad Software, San Diego). Ki values were obtained by Cheng-Prusoff corrections of IC50 values.
(§4) After dilution in buffer A and homogenization as before, membrane proteins (10-80 μg) in 250 μL were added to mixtures containing test compound and [^3H]diprenorphine (0.5 to 1.0 nM, 40,000 to 50,000 dpm) in 250 μL of buffer A in 96-well deep-well polystyrene titer plates (Beckman). After incubation at room temperature for one hour, the samples were filtered through GF/B filters that had been presoaked in a solution of 0.5% (w/v) polyethylenimine and 0.1% (w/v) bovine serum albumin in water. The filters were rinsed 4 times with 1 mL of cold 50 mM Tris HCl, pH 7.8 and radioactivity remaining on the filters determined by scintillation spectroscopy. Nonspecific binding was determined by the minimum values of the titration curves and was confirmed by separate assay wells containing 10 μM naloxone.
(§5) To determine the equilibrium dissociation constant for the inhibitors (Ki), radioligand bound (cpm) in the presence of various concentrations of test compounds was measured. […] The nonlinear regression fit was performed using the program Prism® (GraphPad Software, San Diego, Calif.). The Ki values were then determined from the […] values by the following equation, [formula] • where [ligand] is the concentration of radioligand; and • Kd is the equilibrium dissociation constant for the radioligand.

Series [3] has as its target T2, CYP2D6 (Homo sapiens, UniProt P10635).
T2 construct: purchased BD Biosciences
Kind of series: Inhibition of CYP2D6 catalyzed conversion of MAMC to HAMC. The format is in vitro ADME. The method, then: Inhibition of CYP2D6 Catalyzed Conversion of MAMC to HAMC
Microsomes containing baculovirus expressed human recombinant CYP2D6 and MAMC were purchased from BD Biosciences. The method is a modification of the method provided by BD Biosciences.
• Assay Buffer=50 mM KPO4, 15 μg/mL NADP^+, 0.30 mg/mL glucose-6-phosphate, 0.20 mg/mL MgCl2, 0.96 U/mL glucose-6-phosphate dehydrogenase, 2.5 μM MAMC, pH 7.4. • Dilution Buffer=50 mM KPO4, pH 7.4 • Enzyme Buffer=150 mM KPO4, pH 7.4 • Stop Solution=80% acetonitrile, 20% 0.5 M Tris Base Procedure:
The assays were done in black 96 well plates (VWR Cat# 22221-572) and contained: 40 μL assay buffer, 10 μL test compound in dilution buffer and 50 μL of 10-15 pmol/mL CYP2D6 in enzyme buffer. Final concentrations: (100 mM KPO4, pH 7.4, 7.9 μM NADP^+, 0.36 mM glucose-6-phosphate, 0.4 mM MgCl2, 0.38 U/mL glucose-6-phosphate dehydrogenase, 1 μM MAMC (BD Biosciences), 0.5 pmol CYP2D6 (BD Biosciences))
For large experiments, assay buffer and test compound were added using the MiniTrak IV (Packard Biosciences), otherwise they were added using 25-250 μL and 5-100 μL 8 channel electronic pipettors (BioHit). CYP2D6 was added using 25-250 μL 8 channel electronic pipettor.
Titrations are done in either 96 well deep-well plates (Beckman) or 96 well microtiter plates (Costar), an initial dilution in dilution buffer is prepared from stock solutions in DMSO to start either 8 (1:6) or 12 (1:3.15) serial dilutions. For 1:6 dilutions, 50 μL for each dilution is transferred to 250 μL dilution buffer. For 1:3.15 dilutions, 50 μL for each dilution is transferred to 108 μL dilution buffer. Further details on concentrations will be provided in each experiment. Titrations are done using either 25-250 μL 8 channel electronic pipettor, 30-300 μL 12 channel manual pipettor (Spectrum), or the Multiprobe II. For screening, dilution plates are prepared in dilution buffer in 96 well microtiter plates from masterplates in 100% DMSO using the Multiprobe II or MiniTrak IV. After assay buffer and test compound has been added, the plates and the enzyme buffer are prewarmed at 37° C. for 15 minutes. After prewarming, CYP2D6 is added to then enzyme buffer and then added to the assay plate using 25-250 μL 8 channel electronic pipettor and the plates are incubated for 15 minutes at 37° C. After incubation, 50 μL stop solution is added using 25-250 μL 8 channel electronic pipettor. The plates are then counted on the Fusion (Packard Biosciences) for 4 sec/well using and excitation filter of 390 nm and an emission filter of 460 nm, intensity setting of 1, high detector sensitivity.
Non-specific relative fluorescent units (RFU) are determined in the presence of 10 μM quinidine in wells A1, B1, and C1 of each plate and total RFU determined in wells D1, E1, F1 in the absence of test compound. Specific HAMC production is the difference between total and nonspecific. For each compound, a percent inhibition of HAMC production is calculated by: % I=(1−(A/B))*100 • where A=cpm specifically bound for test compound • B=cpm specifically bound in the absence of test compound For experiments where the plates are registered in the biological database, % I is determined automatically by the biological database. Titrations
IC50's are calculated using nonlinear regression to a one-site model using GraphPad Prism or a VB algorithm fitting the data to that equation.

The target in series [4] is T3, cloned human δ opioid receptor (Homo sapiens, UniProt P41143).
T3 construct: expressed in transfected cells
In words: [3H]diprenorphine binding to cloned human δ opioid receptor. The method, then: as §3, §4, §5

Series [5] has as its target CYP2C9 (Homo sapiens, UniProt P11712). In words: Inhibition of CYP2C9 conversion of dibenzylfluorescein to fluorescein. In kind it is in vitro ADME. How it is done: as §1, §2
The test system of series [6] is cytochrome P450 enzymes (CYP2D6, CYP3A4, CYP2C9). Kind of series: Overall evaluation of inhibition of major drug metabolizing hepatic cytochrome P450 enzymes. In kind it is in vitro ADME, human.
The mark [7] stands for this setting: DBF to fluorescein conversion, read-out: IC50(CYP3A4).
The mark [8] stands for this setting: inhibition of [3H]diprenorphine binding, cloned human μ receptor, read-out: Ki(μ).
Where [9] appears, read: MAMC to HAMC conversion, read-out: IC50(CYP2D6).
[10] abbreviates: inhibition of [3H]diprenorphine binding, cloned human δ receptor, read-out: Ki(δ).
Setting [11] is: DBF to fluorescein conversion, read-out: IC50(CYP2C9).

Structures can show the parent of a compound that is named as a salt. Where two headings read alike, the source gives them in different places.

In general, IC50 refers to the concentration that gives 50% inhibition. For orientation: Ki means the equilibrium dissociation constant of an inhibitor or competing ligand from its target.

Sequence of CYP3A4 (P08684 whole entry): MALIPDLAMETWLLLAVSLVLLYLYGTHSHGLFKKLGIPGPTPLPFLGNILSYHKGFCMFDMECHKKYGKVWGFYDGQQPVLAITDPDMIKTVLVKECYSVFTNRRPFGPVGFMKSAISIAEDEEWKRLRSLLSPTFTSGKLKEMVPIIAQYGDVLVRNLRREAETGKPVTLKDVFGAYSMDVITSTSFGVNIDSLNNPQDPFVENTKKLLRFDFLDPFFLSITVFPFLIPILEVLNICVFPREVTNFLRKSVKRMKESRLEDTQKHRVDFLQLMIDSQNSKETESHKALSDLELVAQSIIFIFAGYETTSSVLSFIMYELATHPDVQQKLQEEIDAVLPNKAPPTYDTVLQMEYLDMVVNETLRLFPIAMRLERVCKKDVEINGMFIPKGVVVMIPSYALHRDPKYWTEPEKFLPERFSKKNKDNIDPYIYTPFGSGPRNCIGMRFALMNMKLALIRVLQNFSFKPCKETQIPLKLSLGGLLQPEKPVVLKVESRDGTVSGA
T2 sequence (P10635 whole entry): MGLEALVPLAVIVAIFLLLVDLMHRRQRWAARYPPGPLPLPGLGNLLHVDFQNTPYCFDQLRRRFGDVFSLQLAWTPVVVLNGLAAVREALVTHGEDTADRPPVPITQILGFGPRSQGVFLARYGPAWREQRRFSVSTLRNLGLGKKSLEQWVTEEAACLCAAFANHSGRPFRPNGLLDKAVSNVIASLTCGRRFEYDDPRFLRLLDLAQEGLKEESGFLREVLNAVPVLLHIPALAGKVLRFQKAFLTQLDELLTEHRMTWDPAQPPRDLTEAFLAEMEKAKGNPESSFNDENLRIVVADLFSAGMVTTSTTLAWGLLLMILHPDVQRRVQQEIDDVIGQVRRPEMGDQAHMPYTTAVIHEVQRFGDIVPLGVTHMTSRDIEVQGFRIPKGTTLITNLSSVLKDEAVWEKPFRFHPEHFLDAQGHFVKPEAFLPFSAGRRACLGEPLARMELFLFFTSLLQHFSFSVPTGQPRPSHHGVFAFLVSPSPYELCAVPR
Sequence of CYP2C9 (P11712 whole entry): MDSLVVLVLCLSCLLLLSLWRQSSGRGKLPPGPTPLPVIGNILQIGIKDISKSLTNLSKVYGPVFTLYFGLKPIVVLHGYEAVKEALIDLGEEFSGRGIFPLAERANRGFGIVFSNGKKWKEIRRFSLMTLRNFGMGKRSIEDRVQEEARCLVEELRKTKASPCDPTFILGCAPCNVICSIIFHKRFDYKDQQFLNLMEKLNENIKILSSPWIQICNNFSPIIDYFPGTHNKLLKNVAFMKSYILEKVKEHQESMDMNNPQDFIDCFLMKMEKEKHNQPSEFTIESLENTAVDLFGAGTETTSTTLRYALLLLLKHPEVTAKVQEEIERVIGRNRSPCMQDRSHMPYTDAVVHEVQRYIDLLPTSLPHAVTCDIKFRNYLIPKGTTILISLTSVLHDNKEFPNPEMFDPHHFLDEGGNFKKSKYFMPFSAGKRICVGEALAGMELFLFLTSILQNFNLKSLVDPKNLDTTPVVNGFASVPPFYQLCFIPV
T1 sequence (P35372 whole entry): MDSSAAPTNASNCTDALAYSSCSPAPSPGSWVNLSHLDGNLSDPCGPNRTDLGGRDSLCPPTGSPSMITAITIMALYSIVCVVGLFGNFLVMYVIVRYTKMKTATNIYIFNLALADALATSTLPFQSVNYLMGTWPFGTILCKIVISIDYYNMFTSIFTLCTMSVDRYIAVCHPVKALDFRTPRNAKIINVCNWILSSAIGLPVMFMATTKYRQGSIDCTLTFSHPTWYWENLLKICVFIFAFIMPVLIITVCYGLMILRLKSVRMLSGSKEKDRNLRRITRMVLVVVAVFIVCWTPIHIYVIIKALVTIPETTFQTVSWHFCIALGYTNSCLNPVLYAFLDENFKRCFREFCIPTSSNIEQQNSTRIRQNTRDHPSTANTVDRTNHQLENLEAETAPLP
T3 sequence (P41143 whole entry): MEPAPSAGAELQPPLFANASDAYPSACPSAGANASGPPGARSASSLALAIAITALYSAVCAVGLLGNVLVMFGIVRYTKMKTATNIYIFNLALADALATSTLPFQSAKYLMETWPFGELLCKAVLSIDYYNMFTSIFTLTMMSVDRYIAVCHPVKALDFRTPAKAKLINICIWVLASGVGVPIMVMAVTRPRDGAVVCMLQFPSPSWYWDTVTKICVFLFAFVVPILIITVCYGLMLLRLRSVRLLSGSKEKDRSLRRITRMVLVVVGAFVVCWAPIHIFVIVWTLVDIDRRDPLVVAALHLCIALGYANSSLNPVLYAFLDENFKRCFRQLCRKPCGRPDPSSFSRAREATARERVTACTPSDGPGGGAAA

Turning to `CN(C(=O)Cc1cccc(CNS(C)(=O)=O)c1)[C@H](CN1CCCC1)c1ccccc1` [Example 11, 2-[3-(methanesulfonylamino-methyl)-phenyl]-N-methyl-N-[1-(S)-phenyl-2-pyrrolidin-1-yl-ethyl]-acetamide hydrochloride], the IC50 in series [1] (setting [7]) was above 10000 nM; in series [3] (setting [9]), 1400 nM. For the same molecule, the Ki turned out to be 1900 nM in series [2] (setting [8]) and 1500 nM in series [4] (setting [10]).

For the molecule `CN(C(=O)Cc1ccc(CNS(C)(=O)=O)cc1)[C@H](CN1CCCC1)c1ccccc1` [Example 12, 2-[4-(methanesulfonylamino-methyl)-phenyl]-N-methyl-N-[1-(S)-phenyl-2-pyrrolidin-1-yl-ethyl]-acetamide], the IC50 in series [1] was above 10000 nM; in series [5] it was above 10000 nM; in series [3], 12000 nM. In addition, the Ki in series [2] was 470 nM; in series [4], above 3000 nM.

For `CN(C(=O)Cc1ccc(CNS(C)(=O)=O)cc1)[C@H](CN1CC[C@H](O)C1)c1ccccc1` [Example 13, N-{2-[3-(S)-hydroxy-pyrrolidin-1-yl]-1-(S)-phenyl-ethyl}-2-[4-(methanesulfonylamino-methyl)-phenyl]-N-methyl-acetamide hydrochloride], the values for the IC50 in series [1] (setting [7]), in series [5] (setting [11]) and in series [3] (setting [9]) were above 10000 nM, above 10000 nM and 9300 nM, respectively. Also, the Ki turned out to be 140 nM in series [2] and 190 nM in series [4].

Consider `CCS(=O)(=O)NCc1ccc(CC(=O)N(C)[C@H](CN2CC[C@H](O)C2)c2ccccc2)cc1.Cl` [Example 14, 2-[4-(ethanesulfonylamino-methyl)-phenyl]-N-{2-[3-(S)-hydroxy-pyrrolidin-1-yl]-1-(S)-phenyl-ethyl}-N-methyl-acetamide hydrochloride], for which the IC50 in series [1] (setting [7]), in series [5] (setting [11]) and in series [3] (setting [9]) was above 10000 nM in each case. Also, in series [6], the “activity toward the cytochrome P450 (summary in words)” value was “metabolically stable in regard to their activity toward the cytochrome P450”. The Ki in series [2] was determined as 1000 nM; in series [4] (setting [10]), 510 nM.

Consider `CC(C)S(=O)(=O)NCc1ccc(CC(=O)N(C)[C@H](CN2CC[C@H](O)C2)c2ccccc2)cc1.Cl` [Example 15, N-{2-[3-(S)-hydroxy-pyrrolidin-1-yl]-1-(S)-phenyl-ethyl}-N-methyl-2-{4-[(propane-2-sulfonylamino)-methyl]-phenyl}-acetamide hydrochloride], for which the IC50 in series [1] (setting [7]), in series [5] (setting [11]) and in series [3] (setting [9]) was above 10000 nM in each case. Further, the “activity toward the cytochrome P450 (summary in words)” value in series [6] is “metabolically stable in regard to their activity toward the cytochrome P450”. Further, the Ki was 1100 nM in series [2] (setting [8]) and 470 nM in series [4] (setting [10]).

Consider `CCCCS(=O)(=O)NCc1ccc(CC(=O)N(C)[C@H](CN2CC[C@H](O)C2)c2ccccc2)cc1` [Example 17, 2-{4-[(butane-1-sulfonylamino)-methyl]-phenyl}-N-{2-[3-(S)-hydroxy-pyrrolidin-1-yl]-1-(S)-phenyl-ethyl}-N-methyl-acetamide hydrochloride], for which the IC50 in series [1] (setting [7]) was 7000 nM; in series [5] (setting [11]) it was above 10000 nM; in series [3] (setting [9]) it was 7200 nM. The Ki is 1000 nM in series [2] and 170 nM in series [4].

With `CN(C(=O)Cc1ccc(CNS(=O)(=O)c2ccccc2)cc1)[C@H](CN1CC[C@H](O)C1)c1ccccc1` [Example 18, 2-[4-(benzenesulfonylamino-methyl)-phenyl]-N-{2-[3-(S)-hydroxy-pyrrolidin-1-yl]-1-(S)-phenyl-ethyl}-N-methyl-acetamide hydrochloride], the IC50 came out at 4300 nM in series [1] (setting [7]), 8000 nM in series [5] (setting [11]) and 3400 nM in series [3] (setting [9]). Besides, the values for the Ki in series [2] (setting [8]) and in series [4] (setting [10]) were 880 nM and 83 nM, respectively.

As to `CN(C(=O)Cc1ccc(CNS(=O)(=O)c2ccc(F)cc2)cc1)[C@H](CN1CC[C@H](O)C1)c1ccccc1` [Example 19, 2-{4-[(4-fluoro-benzenesulfonylamino)-methyl]-phenyl}-N-{2-[3-(S)-hydroxy-pyrrolidin-1-yl]-1-(S)-phenyl-ethyl}-N-methyl-acetamide hydrochloride], the IC50 in series [1] (setting [7]) is 2900 nM; in series [5] (setting [11]), above 10000 nM; in series [3] (setting [9]) it was 6300 nM. For the same molecule, the values for the Ki in series [2] and in series [4] were 1100 nM and 64 nM, respectively.

Turning to `Cc1ccc(S(=O)(=O)NCc2ccc(CC(=O)N(C)[C@H](CN3CC[C@H](O)C3)c3ccccc3)cc2)cc1` [Example 20, N-{2-[3-(S)-hydroxy-pyrrolidin-1-yl]-1-(S)-phenyl-ethyl}-N-methyl-2-{4-[(toluene-4-sulfonylamino)-methyl]-phenyl}-acetamide hydrochloride], the half-inhibitory concentration (IC50) in series [1] (setting [7]) was above 10000 nM; in series [5] (setting [11]) it was above 10000 nM; in series [3] (setting [9]), 4900 nM. The inhibition constant (Ki) in series [2] (setting [8]) came out at 700 nM; in series [4], 28 nM.

For `CN(C(=O)Cc1ccc(CNS(=O)(=O)Cc2ccccc2)cc1)[C@H](CN1CC[C@H](O)C1)c1ccccc1` [Example 21, N-{2-[3-(S)-hydroxy-pyrrolidin-1-yl]-1-(S)-phenyl-ethyl}-N-methyl-2-[4-(phenylmethanesulfonylamino-methyl)-phenyl]-acetamide hydrochloride], the results for the IC50 in series [1] (setting [7]), in series [5] (setting [11]) and in series [3] (setting [9]) were 5600 nM, above 10000 nM and 5300 nM, respectively. For the same molecule, the Ki in series [2] (setting [8]) was 480 nM; in series [4], 170 nM.

As for `CN(C(=O)Cc1ccc(NS(C)(=O)=O)cc1)[C@H](CN1CC[C@H](O)C1)c1ccccc1` [Example 25, N-{2-[3-(S)-hydroxy-pyrrolidin-1-yl]-1-(S)-phenyl-ethyl}-2-(4-methanesulfonylamino-phenyl)-N-methyl-acetamide hydrochloride], the half-inhibitory concentration (IC50) in series [1] (setting [7]) was above 10000 nM; in series [3] (setting [9]) it was 4900 nM. Moreover, the inhibition constant (Ki) came to 100 nM in series [2] and 180 nM in series [4].

These data come from patent US6992193B2, “Sulfonylamino phenylacetamide derivatives and methods of their use” (Adolor Corporation, priority 2003, dated 2006).
